According to US8956160B2, “Device and method for delivering an oral care agent” (Ranir, LLC, priority 2002, dated 2015):

Assay: Accelerated H2O2 stability study with individual ingredients of backing, anchor and oral care layers
Assay type: physicochemical
Conditions: 40° C./75% RH, up to 9 weeks
Experimental: Accelerated H2O2 stability studies were conducted at 40° C./75% relative humidity (RH) with the individual ingredients used to form the backing, anchor and oral care layers as described in Example 1.

H2O2 stability: good stability
Compound: OO [Device H2O2, hydrogen peroxide]
